Consider six molecules from patent US7745457B2, “Meridamycin analogues for the treatment of neurodegenerative disorders” (Wyeth LLC, priority 2006, dated 2010).

This test has as its system cortical neuron cultures. As to the kind of experiment: Neurite outgrowth in dissociated cortical neuron cultures. In kind it is cell-based. To be noted: Cortical neurone; embryonic day 15 rat cortical neurons, 72 hours treatment, TUJ-1 staining, Cellomics ArrayScan ENO algorithm; read-out: EC50 in cortical neuron assays (neurite outgrowth). The protocol: Dissociated cortical neuron cultures were prepared as previously described (Pong et al., 2001). Briefly, embryonic day 15 rat fetuses were collected and dissected in ice-cold PBS. Dissected cortices were pooled together and transferred to an enzymatic dissociation medium containing papain. After 30 minutes, the tissue was mechanically triturated with a fire-polished glass Pasteur pipette. Single-cell suspensions in complete media were seeded on poly-L-ornithine and laminin coated 96-well plates. 24 hours later, cultures were treated with various concentrations of compound for 72 hours. The cultures were then fixed and stained with an anti-tubulin primary antibody (TUJ-1) and a fluorescent-tagged secondary antibody. Neurite outgrowth was determined by using the Enhanced Neurite Outgrowth (ENO) algorithm with the Cellomics ArrayScan and expressed as average neurite length or total neurite length per cell.
Regarding `CC/C1=C\CC(/C(C)=C/C(C)C(C)O)OC(=O)C2CCCCN2C(=O)C(=O)C2(O)OC(CCC2C)CC2OC(C)(C)OC(CC3CC(OC(C)(C)O3)/C(C)=C/C(C)CC(C)C1O)C2C` (stereo not drawn) [Example 1], the half-maximal effective concentration (EC50) is under 1000 nM.

Turning to `CC/C1=C\CC(/C(C)=C/C(C)C(C)OC(C)=O)OC(=O)C2CCCCN2C(=O)C(=O)C2(O)OC(CCC2C)CC(OC(C)=O)C(C)C(OC(C)=O)CC(OC(C)=O)CC(OC(C)=O)/C(C)=C/C(C)CC(C)C1OC(C)=O` (stereo not drawn) [Example 2], the EC50 is under 1000 nM.

`CC/C1=C\CC(/C(C)=C/C(C)C(C)OC(C)=O)OC(=O)C2CCCCN2C(=O)C(=O)C2(O)OC(CCC2C)CC(O)C(C)C(O)CC(OC(C)=O)CC(OC(C)=O)/C(C)=C/C(C)CC(C)C1OC(C)=O` (stereo not drawn) [Example 3]: the EC50 is under 1000 nM.

Consider `CC/C1=C\CC(/C(C)=C/C(C)C(C)O)OC(=O)C2CCCCN2C(=O)C(=O)C2(O)OC(CCC2C)CC(O)C(C)C(O)CC2CC(OC(C)(C)O2)/C(C)=C/C(C)CC(C)C1O` (stereo not drawn) [Example 4], for which the half-maximal effective concentration (EC50) was under 1000 nM.

Take `CC/C1=C\CC(/C(C)=C/C(C)C(C)OC(C)=O)OC(=O)C2CCCCN2C(=O)C(=O)C2(O)OC(CCC2C)CC(O)C(C)C(OC(C)=O)CC(OC(C)=O)CC(OC(C)=O)/C(C)=C/C(C)CC(C)C1OC(C)=O` (stereo not drawn) [Example 5]: the EC50 was under 1000 nM.

For the molecule `CC/C1=C\CC(/C(C)=C/C(C)C(C)=O)OC(=O)C2CCCCN2C(=O)C(=O)C2(O)OC(CCC2C)CC2OC(C)(C)OC(CC3CC(OC(C)(C)O3)/C(C)=C/C(C)CC(C)C1=O)C2C` (stereo not drawn) [Example 6], the half-maximal effective concentration (EC50) was under 1000 nM.
